Structure (SMILES) | melting point [°C]
CCC(C)(C)c1ccc(NC(=O)C(=O)Nc2cc(Cl)cc(Cl)c2O)c(O)c1 [Example 9, N-(3,5-Dichloro-2-hydroxy-phenyl)-N′-[4-(1,1-dimethyl-propyl)-2-hydroxy-phenyl]-oxalamide] | 260
O=C(Nc1cc(C(=O)NCCCn2ccnc2)ccc1O)C(=O)Nc1cc(Cl)cc(Cl)c1O [Example 36, N-(3,5-Dichloro-2-hydroxy-phenyl)-N′-[2-hydroxy-5-(3-imidazol-1-yl-propylcarbamoyl)-phenyl]-oxalamide] | 175
O=C(Nc1cc(C(F)(F)F)ccc1O)C(=O)Nc1cc(Cl)cc(Cl)c1O [Example 21, N-(3,5-Dichloro-2-hydroxy-phenyl)-N′-(2-hydroxy-5-trifluoromethyl-phenyl)-oxalamide] | 281
N#Cc1ccc(O)c(NC(=O)C(=O)Nc2cc(Cl)cc(Cl)c2O)c1 [Example 15, N-(5-Cyano-2-hydroxy-phenyl)-N′-(3,5-dichloro-2-hydroxy-phenyl)-oxalamide] | 298
O=C(Nc1cc(-c2ccccc2)ccc1O)C(=O)Nc1cc(Cl)cc(Cl)c1O [Example 5, N-(3,5-Dichloro-2-hydroxy-phenyl)-N′-(4-hydroxy-biphenyl-3-yl)-oxalamide] | 288
CCOC(=O)c1ccc(O)c(NC(=O)C(=O)Nc2cc(Cl)cc(Cl)c2O)c1 [Example 25, 3-[(3,5-Dichloro-2-hydroxy-phenylaminooxalyl)-amino]-4-hydroxy-benzoic Acid Ethyl Ester] | 270
CN1CCCC1CCNC(=O)c1ccc(O)c(NC(=O)C(=O)Nc2cc(Cl)cc(Cl)c2O)c1 (racemic) [Example 34, N-(3,5-Dichloro-2-hydroxy-phenyl)-N′-{2-hydroxy-5-[2-(1-methyl-pyrrolidin-2-yl)-ethylcarbamoyl]-phenyl}-oxalamide (Racemic)] | 220
O=C(Nc1ccc(C(=O)NCCCn2ccnc2)cc1O)C(=O)Nc1cc(Cl)cc(Cl)c1O [Example 43, N-(3,5-Dichloro-2-hydroxy-phenyl)-N′-[2-hydroxy-4-(3-imidazol-1-yl-propylcarbamoyl)-phenyl]-oxalamide] | 225
O=C(Nc1cc(Cl)cc(Cl)c1O)C(=O)Nc1c(O)ccc2ccccc12 [Example 8, N-(3,5-Dichloro-2-hydroxy-phenyl)-N′-(2-hydroxy-naphthalen-1-yl)-oxalamide] | 265
COc1ccc(O)c(NC(=O)C(=O)Nc2cc(Cl)cc(Cl)c2O)c1 [Example 17, N-(3,5-Dichloro-2-hydroxy-phenyl)-N′-(2-hydroxy-5-methoxy-phenyl)-oxalamide] | 273
CCOC(=O)C(Cc1ccccc1)NC(=O)c1ccc(O)c(NC(=O)C(=O)Nc2cc(Cl)cc(Cl)c2O)c1 (stereo in doubt) [Example 32, 2(2R)-{3-[(3,5-Dichloro-2-hydroxy-phenylaminooxalyl)-amino]-4-hydroxy-benzoylamino}-3-phenyl-propionic acid ethyl ester] | 254
O=C(Nc1cc(C(=O)NCc2ccncc2)ccc1O)C(=O)Nc1cc(Cl)cc(Cl)c1O [Example 33, N-(3,5-Dichloro-2-hydroxy-phenyl)-N′-{2-hydroxy-5-[(pyridin-4-ylmethyl)-carbamoyl]-phenyl}-oxalamide] | 250
CN(C)CCCNC(=O)c1ccc(O)c(NC(=O)C(=O)Nc2cc(Cl)cc(Cl)c2O)c1 [Example 35, N-(3,5-Dichloro-2-hydroxy-phenyl)-N′-[5-(3-dimethylamino-propylcarbamoyl)-2-hydroxy-phenyl]-oxalamide] | 205
COC(=O)c1ccc(NC(=O)C(=O)Nc2cc(Cl)cc(Cl)c2O)c(O)c1 [Example 12, 4-[(3,5-Dichloro-2-hydroxy-phenylaminooxalyl)-amino]-3-hydroxy-benzoic Acid Methyl Ester] | 271
O=C(Nc1cc2ccccc2cc1O)C(=O)Nc1cc(Cl)cc(Cl)c1O [Example 6, N-(3,5-Dichloro-2-hydroxy-phenyl)-N′-(3-hydroxy-naphthalen-2-yl)-oxalamide] | 313
O=C(Nc1cc([N+](=O)[O-])ccc1O)C(=O)Nc1cc(Cl)cc(Cl)c1O [Example 4, N-(3,5-Dichloro-2-hydroxy-phenyl)-N′-(2-hydroxy-5-nitro-phenyl)-oxalamide] | 386
CN1CCN(CCCNC(=O)c2ccc(O)c(NC(=O)C(=O)Nc3cc(Cl)cc(Cl)c3O)c2)CC1 [Example 30, N-(3,5-Dichloro-2-hydroxy-phenyl)-N′-{2-hydroxy-5-[3-(4-methyl-piperazin-1-yl)-propylcarbamoyl]-phenyl}-oxalamide] | 232

Now from value to compound:

melting point [°C] | Structure (SMILES)
311 | O=C(Nc1cc(Cl)ccc1O)C(=O)Nc1cc(Cl)cc(Cl)c1O [Example 7, N-(5-Chloro-2-hydroxy-phenyl)-N′-(3,5-dichloro-2-hydroxy-phenyl)-oxalamide]
323 | O=C(Nc1ccc(C(=O)O)cc1O)C(=O)Nc1cc(Cl)cc(Cl)c1O [Example 24, 4-[(3,5-Dichloro-2-hydroxy-phenylaminooxalyl)-amino]-3-hydroxy-benzoic Acid]
302 | O=C(Nc1cc(Cl)cc(Cl)c1O)C(=O)Nc1ccc(F)c(F)c1O [Example 20, N-(3,5-Dichloro-2-hydroxy-phenyl)-N′-(3,4-difluoro-2-hydroxy-phenyl)-oxalamide]
283 | Cc1ccc(NC(=O)C(=O)Nc2cc(Cl)cc(Cl)c2O)c(O)c1 [Example 3, N-(3,5-Dichloro-2-hydroxy-phenyl)-N′-(2-hydroxy-4-methyl-phenyl)-oxalamide]
296 | O=C(Nc1cccc(Cl)c1O)C(=O)Nc1cc(Cl)cc(Cl)c1O [Example 19, N-(3-Chloro-2-hydroxy-phenyl)-N′-(3,5-dichloro-2-hydroxy-phenyl)-oxalamide]
260 | Cc1cccc(O)c1NC(=O)C(=O)Nc1cc(Cl)cc(Cl)c1O [Example 10, N-(3,5-Dichloro-2-hydroxy-phenyl)-N′-(2-hydroxy-6-methyl-phenyl)-oxalamide]
297 | O=C(Nc1cc(F)ccc1O)C(=O)Nc1cc(Cl)cc(Cl)c1O [Example 18, N-(3,5-Dichloro-2-hydroxy-phenyl)-N′-(5-fluoro-2-hydroxy-phenyl)-oxalamide]
